Drawing on ChEMBL document CHEMBL1140771, “Heteroallyl-containing 5-nitrofuranes as new anti-Trypanosoma cruzi agents with a dual mechanism of action” (Bioorg Med Chem, 2008), this text covers MIC, IC50 and Activity for eight compounds.

Molecules are shown by their SMILES. pIC50: −log10 of the molar value. ≈ marks a conversion by molar mass, not a printed value.

Assay [1] relates to Trypanosoma cruzi. Put plainly: Antitrypanosomal activity against Trypanosoma cruzi EP epimastigotes after 96 hrs. The format is functional.
Assay [2] relates to Trypanosoma cruzi. Put plainly: Antitrypanosomal activity against Trypanosoma cruzi Y epimastigotes after 48 hrs by MTT assay. It counts as functional, organism-based.
The test system of assay [3] is Trypanosoma cruzi. Description: Antitrypanosomal activity against Trypanosoma cruzi EP amastigotes. The format is functional, organism-based.
For assay [4], the system named is Trypanosoma cruzi. Put plainly: Inhibition of sterol biosynthesis in Trypanosoma cruzi EP epimastigotes assessed as exogenous cholesterol levels at 10 uM after 120 hrs. Details: scale not given: the % may be the effect or the level left. It counts as functional.
In assay [5] the test system is Trypanosoma cruzi. Put plainly: Inhibition of sterol biosynthesis in Trypanosoma cruzi EP epimastigotes assessed as endogenous squalene levels at 10 uM after 120 hrs. The format is functional. Details: scale not given: the % may be the effect or the level left.
Assay [6] relates to Trypanosoma cruzi. Put plainly: Effect on oxygen redox cycling in Trypanosoma cruzi Y epimastigotes assessed as rate of oxygen consumption at 120 uM in presence of cyanide relative to control. The format is functional.
In assay [7] the test system is Trypanosoma cruzi. Put plainly: Effect on oxygen uptake in Trypanosoma cruzi Y epimastigotes assessed as rate of oxygen consumption at 120 uM relative to control. It counts as functional.
For assay [8], the system named is Trypanosoma cruzi. Description: Effect on oxygen redox cycling in Trypanosoma cruzi Y epimastigotes assessed as rate of oxygen consumption at 80 uM in presence of cyanide relative to control. The format is functional.
In another assay the test system is Vero. Put plainly: Cytotoxicity against african green monkey Vero cells. It counts as cell-based. Conditions: Chlorocebus sabaeus.
For assay [9], the system named is Trypanosoma cruzi. Put plainly: Effect on oxygen uptake in Trypanosoma cruzi Y epimastigotes assessed as rate of oxygen consumption at 80 uM relative to control. The format is functional.
Assay [10] has as its system Trypanosoma cruzi. Description: Antitrypanosomal activity against Trypanosoma cruzi EP amastigotes in Vero cells after 96 hrs. It counts as functional.
In assay [11] the test system is Trypanosoma cruzi. Description: Inhibition of sterol biosynthesis in Trypanosoma cruzi EP epimastigotes assessed as 24-ethyl-5,7,22-cholestatrien-3beta-ol levels at 30 uM after 120 hrs. The format is functional. Set-up: scale not given: the % may be the effect or the level left.
For assay [12], the system named is Trypanosoma cruzi. Description: Inhibition of sterol biosynthesis in Trypanosoma cruzi EP epimastigotes assessed as endogenous squalene levels at 30 uM after 120 hrs. Set-up: scale not given: the % may be the effect or the level left. It counts as functional.
The subject of assay [13] is Trypanosoma cruzi. Put plainly: Inhibition of sterol biosynthesis in Trypanosoma cruzi EP epimastigotes assessed as exogenous cholesterol levels at 30 uM after 120 hrs. The format is functional. Details: scale not given: the % may be the effect or the level left.
For assay [14], the system named is Trypanosoma cruzi. Put plainly: Inhibition of sterol biosynthesis in Trypanosoma cruzi EP epimastigotes assessed as ergosta-5,7-dien-3beta-ol levels at 30 uM after 120 hrs. The format is functional. Set-up: scale not given: the % may be the effect or the level left.
Assay [15] deals with Trypanosoma cruzi. Put plainly: Inhibition of sterol biosynthesis in Trypanosoma cruzi EP epimastigotes assessed as ergosta-5,7-24(24')-trien-3beta-ol levels at 30 uM after 120 hrs. The format is functional. Details: scale not given: the % may be the effect or the level left.
The test system of assay [16] is Trypanosoma cruzi. Put plainly: Inhibition of sterol biosynthesis in Trypanosoma cruzi EP epimastigotes assessed as ergosterol levels at 30 uM after 120 hrs. The format is functional. Details: scale not given: the % may be the effect or the level left.
The subject of assay [17] is Trypanosoma cruzi. Description: Inhibition of sterol biosynthesis in Trypanosoma cruzi EP epimastigotes assessed as 24-ethyl-5,7-cholestadien-3beta-ol levels at 3 uM after 120 hrs. Set-up: scale not given: the % may be the effect or the level left. It counts as functional.
Assay [18] deals with Trypanosoma cruzi. Put plainly: Inhibition of sterol biosynthesis in Trypanosoma cruzi EP epimastigotes assessed as ergosta-5,7-dien-3beta-ol levels at 3 uM after 120 hrs. The format is functional. Details: scale not given: the % may be the effect or the level left.
Assay [19] deals with Trypanosoma cruzi. Description: Inhibition of sterol biosynthesis in Trypanosoma cruzi EP epimastigotes assessed as ergosterol levels at 3 uM after 120 hrs. Details: scale not given: the % may be the effect or the level left. It counts as functional.
The test system of assay [20] is Trypanosoma cruzi. Put plainly: Inhibition of sterol biosynthesis in Trypanosoma cruzi EP epimastigotes assessed as ergosta-5,7-24(24')-trien-3beta-ol levels at 3 uM after 120 hrs. The format is functional. Details: scale not given: the % may be the effect or the level left.
Assay [21] has as its system Trypanosoma cruzi. Put plainly: Effect on oxygen uptake in Trypanosoma cruzi Y epimastigotes assessed as rate of oxygen consumption at 60 uM relative to control. It counts as functional.
Assay [22] has as its system Trypanosoma cruzi. Description: Inhibition of sterol biosynthesis in Trypanosoma cruzi EP epimastigotes assessed as 24-ethyl-5,7,22-cholestatrien-3beta-ol levels at 3 uM after 120 hrs. It counts as functional. Set-up: scale not given: the % may be the effect or the level left.
The test system of assay [23] is Trypanosoma cruzi. Description: Inhibition of sterol biosynthesis in Trypanosoma cruzi EP epimastigotes assessed as ergosterol levels at 10 uM after 120 hrs. Set-up: scale not given: the % may be the effect or the level left. It counts as functional.
The subject of assay [24] is Trypanosoma cruzi. Put plainly: Inhibition of sterol biosynthesis in Trypanosoma cruzi EP epimastigotes assessed as endogenous squalene levels at 3 uM after 120 hrs. The format is functional. Set-up: scale not given: the % may be the effect or the level left.
Assay [25] deals with Trypanosoma cruzi. Description: Effect on oxygen redox cycling in Trypanosoma cruzi Y epimastigotes assessed as rate of oxygen consumption at 60 uM in presence of cyanide relative to control. The format is functional.
The subject of assay [26] is Trypanosoma cruzi. Description: Inhibition of sterol biosynthesis in Trypanosoma cruzi EP epimastigotes assessed as exogenous cholesterol levels at 3 uM after 120 hrs. The format is functional. Set-up: scale not given: the % may be the effect or the level left.
Assay [27] has as its system Trypanosoma cruzi. Description: Effect on oxygen redox cycling in Trypanosoma cruzi Y epimastigotes assessed as rate of oxygen consumption at 166 uM in presence of cyanide relative to control. It counts as functional.
Assay [28] relates to Trypanosoma cruzi. Put plainly: Effect on oxygen uptake in Trypanosoma cruzi Y epimastigotes assessed as rate of oxygen consumption at 166 uM relative to control. It counts as functional.
Assay [29] relates to Trypanosoma cruzi. Put plainly: Inhibition of sterol biosynthesis in Trypanosoma cruzi EP epimastigotes assessed as 24-ethyl-5,7-cholestadien-3beta-ol levels at 10 uM after 120 hrs. It counts as functional. Set-up: scale not given: the % may be the effect or the level left.
The subject of assay [30] is Trypanosoma cruzi. Put plainly: Inhibition of sterol biosynthesis in Trypanosoma cruzi EP epimastigotes assessed as ergosta-5,7-24(24')-trien-3beta-ol levels at 10 uM after 120 hrs. The format is functional. Details: scale not given: the % may be the effect or the level left.
The test system of assay [31] is Trypanosoma cruzi. Put plainly: Inhibition of sterol biosynthesis in Trypanosoma cruzi EP epimastigotes assessed as ergosta-5,7-dien-3beta-ol levels at 10 uM after 120 hrs. The format is functional. Set-up: scale not given: the % may be the effect or the level left.

With `C=C(C)CNC(=O)N/N=C/c1ccc([N+](=O)[O-])o1`, the minimum inhibitory concentration (MIC) against Trypanosoma cruzi [1] and in the assay with Trypanosoma cruzi [10] was 10 µM (≈ 2.52 µg/mL) in each case. The negative logarithm of the IC50 (pIC50) was 5.42 in the assay with Trypanosoma cruzi [2], 6.05 with Trypanosoma cruzi [3] and 4.49 in the assay on Vero. Besides, the Activity amounted to 31.9% in the assay on Trypanosoma cruzi [4]; 68.1% with Trypanosoma cruzi [5]; 27% in the assay on Trypanosoma cruzi [6]; 148% with Trypanosoma cruzi [7]; 33% in the assay with Trypanosoma cruzi [8]; 110% in the assay on Trypanosoma cruzi [9].
In turn, `C=CCOC(=O)N/N=C/C=C/c1ccc([N+](=O)[O-])o1` returned an MIC with Trypanosoma cruzi [1] above 30 µM. The Activity in the assay on Trypanosoma cruzi [11] came to 10.6%; with Trypanosoma cruzi [12], 36.4%; in the assay on Trypanosoma cruzi [13] it was 29.4%; with Trypanosoma cruzi [14], 4.6%; in the assay with Trypanosoma cruzi [15], 4%; with Trypanosoma cruzi [16], 15%.
Consider `O=C(N/N=C/c1ccc([N+](=O)[O-])o1)Oc1ccccc1`, for which the minimal inhibitory concentration (MIC) in the assay with Trypanosoma cruzi [1] came to 10 µM (≈ 2.75 µg/mL); in the assay with Trypanosoma cruzi [10] it was 30 µM (≈ 8.26 µg/mL). The pIC50 in the assay on Trypanosoma cruzi [2] is 4.97; with Trypanosoma cruzi [3], 5.64; in the assay on Vero, 4.71. For the same compound, the Activity was found to be 3.6% in the assay with Trypanosoma cruzi [17]; 6% in the assay on Trypanosoma cruzi [18]; 7.6% in the assay with Trypanosoma cruzi [19]; 35% in the assay with Trypanosoma cruzi [4]; 60.6% with Trypanosoma cruzi [5]; 2.4% in the assay with Trypanosoma cruzi [20]. Further, the Activity is given as 105% in the assay with Trypanosoma cruzi [21]; 9% in the assay on Trypanosoma cruzi [22]; 4.4% with Trypanosoma cruzi [23]; 39.1% in the assay on Trypanosoma cruzi [24]; 31% with Trypanosoma cruzi [25]; 32.3% in the assay with Trypanosoma cruzi [26].
For the compound `O=C(N/N=C/C=C/c1ccc([N+](=O)[O-])o1)Oc1ccccc1`, the MIC with Trypanosoma cruzi [1] and against Trypanosoma cruzi [10] was 3 µM (≈ 0.904 µg/mL) in each case. Further, the pIC50 is 5.17 in the assay with Trypanosoma cruzi [2], 6.51 in the assay with Trypanosoma cruzi [3] and 5.04 with Vero. In addition, the Activity in the assay with Trypanosoma cruzi [19] was determined as 7.9%; in the assay with Trypanosoma cruzi [4] it was 8.1%; in the assay with Trypanosoma cruzi [5], 91.9%; in the assay on Trypanosoma cruzi [27], 8%; in the assay on Trypanosoma cruzi [28], 88%; with Trypanosoma cruzi [24], 45.2%. Moreover, the Activity in the assay with Trypanosoma cruzi [26] was determined as 46.9%.
As for `C=C(C)CNC(=O)N/N=C/C=C/c1ccc([N+](=O)[O-])o1`, the MIC in the assay with Trypanosoma cruzi [1] was 10 µM (≈ 2.78 µg/mL). Further, the Activity in the assay on Trypanosoma cruzi [18] turned out to be 6.1%; in the assay on Trypanosoma cruzi [19], 18.4%; in the assay with Trypanosoma cruzi [4] it was 9.2%; with Trypanosoma cruzi [5], 90.8%; with Trypanosoma cruzi [22], 10.8%; in the assay on Trypanosoma cruzi [24], 44.4%. The Activity in the assay with Trypanosoma cruzi [26] amounted to 20.3%.
Take `O=C(N/N=C/C=C/c1ccc([N+](=O)[O-])o1)OC/C=C/c1ccccc1`: the MIC with Trypanosoma cruzi [1] and against Trypanosoma cruzi [10] was 10 µM (≈ 3.41 µg/mL) in each case. Further, the pIC50 in the assay on Trypanosoma cruzi [2] was 5.43; with Trypanosoma cruzi [3], 6.19; in the assay with Vero, 4.95. The Activity with Trypanosoma cruzi [18] stood at 8%; in the assay with Trypanosoma cruzi [19] it was 21%; with Trypanosoma cruzi [4], 6.7%; with Trypanosoma cruzi [5], 93.3%; with Trypanosoma cruzi [20], 2.1%; in the assay on Trypanosoma cruzi [22], 16%. Also, the Activity worked out at 40% in the assay with Trypanosoma cruzi [6]; 160% in the assay with Trypanosoma cruzi [7]; 19% in the assay with Trypanosoma cruzi [24]; 38% with Trypanosoma cruzi [8]; 6.7% in the assay on Trypanosoma cruzi [29]; 33.9% in the assay with Trypanosoma cruzi [26]. In the assay with Trypanosoma cruzi [9], the Activity amounted to 89%.
`C=CCOC(=O)N/N=C/c1ccc([N+](=O)[O-])o1` registered an MIC against Trypanosoma cruzi [1] of 30 µM (≈ 7.18 µg/mL). Also, the Activity in the assay on Trypanosoma cruzi [11] amounted to 6.8%; in the assay with Trypanosoma cruzi [12] it was 33.1%; with Trypanosoma cruzi [13], 53.1%; in the assay on Trypanosoma cruzi [16], 7%.
With `O=C(N/N=C/c1ccc([N+](=O)[O-])o1)OC/C=C/c1ccccc1`, in the assay on Trypanosoma cruzi [1], the MIC was found to be 30 µM (≈ 9.46 µg/mL). The Activity with Trypanosoma cruzi [11] is reported as 7.8%; in the assay with Trypanosoma cruzi [12] it was 64.4%; in the assay with Trypanosoma cruzi [4], 52.5%; in the assay on Trypanosoma cruzi [5], 16%; in the assay on Trypanosoma cruzi [23], 10.4%; in the assay on Trypanosoma cruzi [13] it was 22%. Moreover, the figures for the Activity in the assay on Trypanosoma cruzi [30], with Trypanosoma cruzi [31] and in the assay with Trypanosoma cruzi [16] were 2.3%, 5% and 5.8%, respectively.
